{
  "source": "patent US20250171437A1",
  "about": "(Agios Pharmaceuticals,Inc., priority 2022, published 2025)",
  "data": [
    {"target": "T1, human PAH with the R408W mutation (A375 R408W cells) (Homo sapiens, UniProt P00439, R408W)", "T1 construct": "expressed in transfected cells", "T1 sequence (P00439 1-452 R408W)": "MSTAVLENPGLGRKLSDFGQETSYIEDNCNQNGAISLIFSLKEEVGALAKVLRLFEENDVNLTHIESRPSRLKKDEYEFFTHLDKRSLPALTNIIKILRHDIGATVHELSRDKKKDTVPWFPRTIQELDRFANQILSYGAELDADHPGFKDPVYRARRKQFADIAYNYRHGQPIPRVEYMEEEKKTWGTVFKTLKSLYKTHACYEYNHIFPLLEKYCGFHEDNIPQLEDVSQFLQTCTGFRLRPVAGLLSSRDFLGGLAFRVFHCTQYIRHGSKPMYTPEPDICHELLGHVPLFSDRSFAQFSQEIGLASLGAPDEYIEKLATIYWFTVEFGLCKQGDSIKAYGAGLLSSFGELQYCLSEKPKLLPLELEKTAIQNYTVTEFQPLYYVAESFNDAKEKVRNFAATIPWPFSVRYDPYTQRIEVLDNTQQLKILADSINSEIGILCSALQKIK", "test": "Cell Based Phenylalanine Flux Assay", "settings": "A375 R408W cells; 24 hrs with compound, then 20 μM sepiapterin and 800 μM 13C9,15N-Phenylalanine for 4 hours; 13C-Tyrosine by LC-MS; average where tested multiple times", "how_it_was_run": "(§1)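 A375 cells stably expressing lentiviral human PAH R408W were treated with compounds (10-point 2-fold dilutions, 0.5% DMSO, duplicate) for 24 h at 37 °C. Then 20 μM sepiapterin and 800 μM 13C9,15N-Phe were added for 4 h; media 13C-Tyr was measured by LC-MS to give AC50.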", "units": {"AC50": "µM"}, "values": [
      {"smiles": "Cc1cccc2oc([C@H]3c4nc[nH]c4CCN3C(=O)c3ocnc3C(F)F)nc12", "note": "[Example 381, (R)-(4-(difluoromethyl)oxazol-5-yl)(4-(4-methylbenzo[d]oxazol-2-yl)-6,7-dihydro-1H-imidazo[4,5-c]pyridin-5(4H)-yl)methanone]", "AC50": "1 to 5"},
      {"smiles": "Cn1cc(-c2nc(C(F)F)c(C(=O)N3CCc4[nH]cnc4[C@H]3c3nc4cccc(F)c4o3)o2)cn1", "note": "[Example 636, (S)-(4-(difluoromethyl)-2-(1-methyl-1H-pyrazol-4-yl)oxazol-5-yl)(4-(7-fluorobenzo[d]oxazol-2-yl)-6,7-dihydro-1H-imidazo[4,5-c]pyridin-5(4H)-yl)methanone]", "AC50": "≤ 0.5"},
      {"smiles": "COc1ccc2oc([C@@H]3c4nc[nH]c4CCN3C(=O)c3ccnn3C(F)F)nc2c1", "note": "[Example 551, (S)-(1-(difluoromethyl)-1H-pyrazol-5-yl)(4-(5-methoxybenzo[d]oxazol-2-yl)-6,7-dihydro-1H-imidazo[4,5-c]pyridin-5(4H)-yl)methanone]", "AC50": "0.5 to 1"},
      {"smiles": "CCn1cnnc1C(=O)N1CCc2[nH]cnc2[C@@H]1c1nc2cc(F)ccc2o1", "note": "[Example 886, (R)-(4-ethyl-4H-1,2,4-triazol-3-yl)(4-(5-fluorobenzo[d]oxazol-2-yl)-6,7-dihydro-1H-imidazo[4,5-c]pyridin-5(4H)-yl)methanone]", "AC50": "1 to 5"},
      {"smiles": "O=C(c1oc(-c2cnccn2)nc1C(F)F)N1CCc2[nH]cnc2[C@@H]1c1nc2cccc(F)c2o1", "note": "[Example 694, (R)-(4-(difluoromethyl)-2-(pyrazin-2-yl)oxazol-5-yl)(4-(7-fluorobenzo[d]oxazol-2-yl)-6,7-dihydro-1H-imidazo[4,5-c]pyridin-5(4H)-yl)methanone]", "AC50": "≤ 0.5"},
      {"smiles": "Cc1ccc2oc([C@H]3c4nc[nH]c4CCN3C(=O)c3nnc(-c4cc[nH]n4)o3)nc2c1", "note": "[Example 356, (R)-(5-(1H-pyrazol-3-yl)-1,3,4-oxadiazol-2-yl)(4-(5-methylbenzo[d]oxazol-2-yl)-6,7-dihydro-1H-imidazo[4,5-c]pyridin-5(4H)-yl)methanone]", "AC50": "1 to 5"},
      {"smiles": "O=C(c1ocnc1C(F)F)N1CCc2[nH]cnc2[C@@H]1c1nc2c(Br)cccc2o1", "note": "[Example 434, (R)-(4-(4-bromobenzo[d]oxazol-2-yl)-6,7-dihydro-1H-imidazo[4,5-c]pyridin-5(4H)-yl)(4-(difluoromethyl)oxazol-5-yl)methanone]", "AC50": "≤ 0.5"},
      {"smiles": "Cn1cc(-c2ncc(C(=O)N3CCc4[nH]cnc4[C@H]3c3nc4cc(F)ccc4o3)s2)cn1", "note": "[Example 9, (S)-(4-(5-fluorobenzo[d]oxazol-2-yl)-6,7-dihydro-1H-imidazo[4,5-c]pyridin-5(4H)-yl)(2-(1-methyl-1H-pyrazol-4-yl)thiazol-5-yl)methanone]", "AC50": "≤ 0.5"},
      {"smiles": "Cc1cccc2nc([C@H]3c4nc[nH]c4CCN3C(=O)c3oc(C(C)(C)O)nc3C(F)F)oc12", "note": "[Example 391, (R)-(4-(difluoromethyl)-2-(2-hydroxypropan-2-yl)oxazol-5-yl)(4-(7-methylbenzo[d]oxazol-2-yl)-6,7-dihydro-1H-imidazo[4,5-c]pyridin-5(4H)-yl)methanone]", "AC50": "1 to 5"},
      {"smiles": "COc1ccc(-c2nc(C(F)F)c(C(=O)N3CCc4[nH]cnc4[C@@H]3c3nc4cc(F)ccc4o3)o2)nc1", "note": "[Example 446, (R)-(4-(difluoromethyl)-2-(5-methoxypyridin-2-yl)oxazol-5-yl)(4-(5-fluorobenzo[d]oxazol-2-yl)-6,7-dihydro-1H-imidazo[4,5-c]pyridin-5(4H)-yl)methanone]", "AC50": "≤ 0.5"},
      {"smiles": "Cn1ccc(-c2nc(C(F)F)c(C(=O)N3CCc4[nH]cnc4[C@H]3c3nc4ccccc4o3)o2)n1", "note": "[Example 761, (S)-(4-(benzo[d]oxazol-2-yl)-6,7-dihydro-1H-imidazo[4,5-c]pyridin-5(4H)-yl)(4-(difluoromethyl)-2-(1-methyl-1H-pyrazol-3-yl)oxazol-5-yl)methanone]", "AC50": "≤ 0.5"},
      {"smiles": "O=C(c1oc(-c2ccc(F)cn2)nc1C(F)F)N1CCc2[nH]cnc2[C@@H]1c1nc2cc(F)ccc2o1", "note": "[Example 417, (R)-(4-(difluoromethyl)-2-(5-fluoropyridin-2-yl)oxazol-5-yl)(4-(5-fluorobenzo[d]oxazol-2-yl)-6,7-dihydro-1H-imidazo[4,5-c]pyridin-5(4H)-yl)methanone]", "AC50": "≤ 0.5"},
      {"smiles": "CC(C)(O)c1nc(Br)c(C(=O)N2CCc3[nH]cnc3[C@@H]2c2nc3cccc(F)c3o2)o1", "note": "[Example 264, (R)-(4-bromo-2-(2-hydroxypropan-2-yl)oxazol-5-yl)(4-(7-fluorobenzo[d]oxazol-2-yl)-6,7-dihydro-1H-imidazo[4,5-c]pyridin-5(4H)-yl)methanone]", "AC50": "0.5 to 1"},
      {"smiles": "O=C(c1cnco1)N1Cc2[nH]cnc2[C@H]1c1nc2ccccc2o1", "note": "(single isomer, unassigned) [Example 925]", "AC50": "≥ 5"},
      {"smiles": "Cc1cccc2oc([C@@H]3c4nc[nH]c4CCN3C(=O)c3nc(C(F)F)nn3C)nc12", "note": "[Example 447, (S)-(3-(difluoromethyl)-1-methyl-1H-1,2,4-triazol-5-yl)(4-(4-methylbenzo[d]oxazol-2-yl)-6,7-dihydro-1H-imidazo[4,5-c]pyridin-5(4H)-yl)methanone]", "AC50": "≤ 0.5"},
      {"smiles": "O=C(c1oc(-c2cncnc2)nc1C(F)F)N1CCc2[nH]cnc2[C@H]1c1nc2cccc(F)c2o1", "note": "[Example 742, (S)-(4-(difluoromethyl)-2-(pyrimidin-5-yl)oxazol-5-yl)(4-(7-fluorobenzo[d]oxazol-2-yl)-6,7-dihydro-1H-imidazo[4,5-c]pyridin-5(4H)-yl)methanone]", "AC50": "≤ 0.5"},
      {"smiles": "O=C(c1ocnc1C(F)F)N1CCc2[nH]cnc2[C@H]1c1nc2c(F)cccc2o1", "note": "[Example 169, (S)-(4-(difluoromethyl)oxazol-5-yl)(4-(4-fluorobenzo[d]oxazol-2-yl)-6,7-dihydro-1H-imidazo[4,5-c]pyridin-5(4H)-yl)methanone]", "AC50": "≤ 0.5"},
      {"smiles": "Cc1ccc2oc([C@@H]3c4nc[nH]c4CCN3C(=O)c3nnc(-c4cnn(C(F)F)c4)o3)nc2c1", "note": "[Example 673, (S)-(5-(1-(difluoromethyl)-1H-pyrazol-4-yl)-1,3,4-oxadiazol-2-yl)(4-(5-methylbenzo[d]oxazol-2-yl)-6,7-dihydro-1H-imidazo[4,5-c]pyridin-5(4H)-yl)methanone]", "AC50": "≤ 0.5"},
      {"smiles": "COc1ccc2oc([C@H]3c4nc[nH]c4CCN3C(=O)c3nnc(-c4cnn(C)c4)o3)nc2c1", "note": "[Example 554, (R)-(4-(5-methoxybenzo[d]oxazol-2-yl)-6,7-dihydro-1H-imidazo[4,5-c]pyridin-5(4H)-yl)(5-(1-methyl-1H-pyrazol-4-yl)-1,3,4-oxadiazol-2-yl)methanone]", "AC50": "1 to 5"},
      {"smiles": "Cc1ccc2nc([C@H]3c4nc[nH]c4CCN3C(=O)c3nnc(-c4ccn(C(F)F)n4)o3)oc2c1", "note": "[Example 704, (R)-(5-(1-(difluoromethyl)-1H-pyrazol-3-yl)-1,3,4-oxadiazol-2-yl)(4-(6-methylbenzo[d]oxazol-2-yl)-6,7-dihydro-1H-imidazo[4,5-c]pyridin-5(4H)-yl)methanone]", "AC50": "1 to 5"},
      {"smiles": "Cn1ccc(-c2nnc(C(=O)N3CCc4[nH]cnc4[C@H]3c3nc4ccccc4o3)o2)n1", "note": "[Example 843, (S)-(4-(benzo[d]oxazol-2-yl)-6,7-dihydro-1H-imidazo[4,5-c]pyridin-5(4H)-yl)(5-(1-methyl-1H-pyrazol-3-yl)-1,3,4-oxadiazol-2-yl)methanone]", "AC50": "≤ 0.5"},
      {"smiles": "Cc1cccc2oc([C@@H]3c4nc[nH]c4CCN3C(=O)c3nnc(-c4ccccn4)o3)nc12", "note": "[Example 482, (S)-(4-(4-methylbenzo[d]oxazol-2-yl)-6,7-dihydro-1H-imidazo[4,5-c]pyridin-5(4H)-yl)(5-(pyridin-2-yl)-1,3,4-oxadiazol-2-yl)methanone]", "AC50": "≤ 0.5"}
    ]},
    {"target": "T1, human PAH with the R408W mutation (A375 R408W cells)", "test": "Cell Based Phenylalanine Flux Assay", "settings": "A375 cells expressing R408W PAH; 24 hrs with compound, then 20 μM sepiapterin and 800 μM 13C9,15N-Phenylalanine for 4 hours; 13C-Tyrosine by LC-MS; average where tested multiple times", "how_it_was_run": "as §1", "units": {"AC50": "µM"}, "values": [
      {"smiles": "Cc1nc(CN(C)C)oc1C(=O)N1CCc2[nH]cnc2C1c1nc2cc(F)ccc2o1", "note": "(stereo not shown)", "AC50": "1 to 5"},
      {"smiles": "Cc1ccc2oc(C3c4nc[nH]c4CCN3C(=O)c3nc(C)nn3C)nc2c1", "note": "(stereo not shown)", "AC50": "1 to 5"},
      {"smiles": "CC(C)(O)c1nc(C(=O)N2CCc3[nH]cnc3C2c2nc3c(F)cccc3o2)no1", "note": "(stereo not shown) [listing 1 of 2 here]", "AC50": "1 to 5"},
      {"smiles": "CC(C)(O)c1cc(C(=O)N2CCc3[nH]cnc3C2c2nc3cccc(F)c3o2)no1", "note": "(stereo not shown)", "AC50": "1 to 5"},
      {"smiles": "Cc1nc(N2CCC(F)CC2)oc1C(=O)N1CCc2[nH]cnc2C1c1nc2cc(F)ccc2o1", "note": "(stereo not shown)", "AC50": "≥ 5"},
      {"smiles": "O=C(CCc1cncs1)N1CCc2[nH]cnc2C1c1nc2c(F)cccc2o1", "note": "(stereo not shown)", "AC50": "≥ 5"},
      {"smiles": "O=C(c1cnn2cc(N3CCC(O)CC3)ccc12)N1CCc2[nH]cnc2C1c1nc2c(F)cc(F)cc2o1", "note": "(stereo not shown)", "AC50": "1 to 5"},
      {"smiles": "Cc1ncoc1C(=O)N1CC2(CC2)c2[nH]cnc2C1c1nc2cc(F)ccc2o1", "note": "(stereo not shown)", "AC50": "≥ 5"},
      {"smiles": "Cc1nc(C2(O)CC2)oc1C(=O)N1CCc2[nH]cnc2C1c1nc2cc(F)ccc2o1", "note": "(stereo not shown)", "AC50": "≥ 5"},
      {"smiles": "O=C1CN(Cc2ccc3c(C(=O)N4CCc5[nH]cnc5C4c4nc5cc(F)ccc5o4)cnn3c2)CCN1", "note": "(stereo not shown)", "AC50": "≥ 5"},
      {"smiles": "CC(C)(O)c1nc(C(=O)N2CCc3[nH]cnc3C2c2nc3c(F)cccc3o2)no1", "note": "(stereo not shown) [listing 2 of 2 here]", "AC50": "≥ 5"},
      {"smiles": "CC1(C)CN(C(=O)c2ocnc2C(F)F)C(c2nc3cc(F)ccc3o2)c2nc[nH]c21", "note": "(stereo not shown)", "AC50": "≥ 5"}
    ]}
  ]
}
